Laboratory results published in US8741905B2, “Compounds and methods for treating autoimmune diseases” (The Broad Institute, Inc., priority 2010, dated 2014).
Like-named read-outs stand apart in the source and are kept apart here.

Tests used:
STAT1 = STAT1 phosphorylation; type: cell-based; details: FIG. 8
Protocol: siRNAs (100 nM) were transfected into INS-1E cells (5,000 cells/well in a 384-well plate) using DharmaFECT reagent. Transfected cells were cultured for 72 hr, then collected for Western blot analysis and cell-based assays. For Western blotting, cells were lysed in RIPA buffer. Total protein was separated by 4-12% SDS-PAGE and transferred to a PVDF membrane. Blots were developed using the chemiluminescence detection system SuperSignal (Thermo Fisher Scientific) and light emission was captured using an Imaging Station 4000MM (Carestream).

INS-1E cells = assay: Cellular ATP levels (CellTiter-Glo) in cytokine-treated INS-1E cells; suppression of cytokine-induced beta-cell apoptosis; type: cell-based, rat; details: Rattus norvegicus
Protocol: The compounds were analyzed for activity utilizing methods described in Chou et al. (ACS Chem. Biol. 2010 Aug. 20; 5(8):729-34).
INS-1E cells were seeded at 10,000 cells per well using a Multidrop Combi (Thermo Labsystems) in white optical 384-well plates (Corning Life Sciences). After overnight incubation, medium was removed and 50 μL of RPMI containing 1% FBS and a combination of cytokines (10 ng mL-^1 IL-1β, 50 ng mL^−1 IFN-γ, 25 ngmL^−1 TNF-α) was added to every well. Using libraries of compounds dissolved in DMSO and a CyBi-Well pin-transfer robot (CyBio Corp.), 0.1 μL of each compound was added. After 48 h, medium was removed and 20 μL of CellTiter-Glo reagent was added. Luminescence was measured after 10 min of incubation using an EnVision plate reader (PerkinElmer).
Instrument output files were processed using Pipeline Pilot (Accelrys) and input to MATLAB (The MathWorks) for data normalization. Compound performance scores relative to a distribution of mock-treated (DMSO) wells were calculated using a revised version of the scoring system underlying ChemBank. (Seiler et al., Nucleic Acids Res. 36, D351-359, 2008). The role of replicate treatments was further developed as follows: first, mock-treatment distributions were modeled using all mock-treated wells measured on a single day, regardless of their nominal replicate; second, per-compound scores weighted each in-plate background-subtracted measurement by the uncertainty in that measurement, using the method of maximum likelihood. The uncertainty in a single background-subtracted measurement was estimated using the number of mock-treated wells on the plate and, as a measure of the assay noise, the standard deviation of the per-day mock-treatment distribution. The signal, a weighted average of differences, was scaled by the noise, the standard deviation of the mock treatment distribution.
INS-1E cells were seeded at 10,000 cells/well using a Multidrop Combi (Thermo Labsystems) in white optical 384-well plates (Corning Life Sciences). After overnight incubation, medium was removed and 50 μL RPMI containing the treated compound, 1% FBS and a combination of cytokines (10 ng/mL IL-1β, 50 ng/mL IFN-γ, 25 ng/mL TNF-α) was added to every well. After incubation for 48 hr, medium was removed and 20 μL CellTiter-Glo reagent was added. Luminescence was measured after 10-min incubation using an EnVision plate reader (PerkinElmer).

In the case of C[C@@H]1CN([C@@H](C)CO)C(=O)c2cccc(NC(=O)Nc3cccc4ccccc34)c2O[C@H]1CN(C)S(=O)(=O)c1ccc2c(c1)OCCO2 [Compound 21A, N-(((2R,3R)-5-((S)-1-Hydroxypropan-2-yl)-3-methyl-10-(3-(naphthalen-1-yl)ureido)-6-oxo-3,4,5,6-tetrahydro-2H-benzo[b][1,5]oxazocin-2-yl)methyl)-N-methyl-2,3-dihydrobenzo-[b][1,4]dioxine-6-sulfonamide], the STAT1 phosphorylation (STAT1) is reported as “Suppression of STAT1 phosphorylation”, the EC50 (INS-1E cells; INS-1E, assay not named, read-out: EC50) is reported as 770 nM and the IC50 (INS-1E cells; INS-1E, read-out: IC50, inhibition of cytokine-induced beta cell apoptosis) is reported as 770 nM. The EC50 (INS-1E cells; INS-1E cells, cytokines IL-1β, IFN-γ, TNF-α, 48 h, CellTiter-Glo, read-out: CTG EC50 in HTS) was greater than 100 nM.
